“Also recorded” adds a separate entry of the source.
How the values were obtained:
[1] = system: IAV; test: Viral aggregation by electron microscopy; set-up: species or system influenza A virus; settings: 2 or 8μg/ml of peptide; LPS control 10 EU/ml; representative of 3 experiments; Fig 2C
[2] = system: IAV; test: Confocal microscopy of Alexa Fluor 594 labeled IAV on MDCK cells; format: cell-based, influenza A virus; settings: Alexa Fluor 594 labeled IAV pre-incubated with peptide 30 minutes at 37°C, then MDCK cells 45 min; 3 experiments; Fig 3
[3] = system: Philippines 82/H3N2 (Phil82) influenza A virus; format: cell-based
[4] = system: human neutrophils; test: Neutrophil uptake of rhodamine labeled E.coli; format: cell-based; settings: for Neutrophil uptake of E.coli: rhodamine labeled E.coli pre-incubated with peptide, flow cytometry, 5 experiments, separate donors, Fig 7
[5] = system: human neutrophils; test: IAV uptake by neutrophils (flow cytometry); format: cell-based; settings: FITC-IAV (Phil82) treated with peptide 30 min at 37°C, then neutrophils 45 minutes at 37°C, trypan blue quench, 5 experiments, separate donors
[6] = system: Escherichia coli (E.coli); test: Aggregation of rhodamine labeled E.coli (fluorescent microscopy); settings: rhodamine E. coli preincubated with 50ug/ml peptide for 1 hour at 37°C, fluorescent microscope; three experiments; Fig 6
[7] = system: IAV; test: Viral aggregation by light absorbance at 350 nm; set-up: species or system influenza A virus; settings: for Aggregation of IAV particles (light transmission at 350nm): dilute suspension of IAV, Fig 2A and 2B (8 and 16μg/ml)
[8] = system: human neutrophils; format: cell-based; settings: compared to IAV alone, 5 experiments
[9] = set-up: method as in PMID 24449257; settings: simulation kinetics and energetics, compared with βA 35–40 and βA37-42; cited from earlier work

Sequence | Viral aggregation by electron microscopy [1] | Viral aggregates visible by confocal microscopy [2] | Inhibition of IAV infectivity (neutralization) [3] | Neutrophil uptake of E.coli [4] | Neutrophil uptake of IAV ([5]; Fig 4) | Aggregation of fluorescent E.coli [6] | Aggregation of IAV (light transmission at 350nm), 16μg/ml ([7]; 16μg/ml of βA peptides, Fig 2B) | Aggregation of IAV particles (light transmission at 350nm) [7] | Aggregation of IAV particles (light transmission at 350nm) ([7]; listed as 22–42) | Neutrophil H2O2 formation in response to IAV, 16μg/ml ([8]; IAV pre-incubated with 16μg/ml peptide, Fig 5A) | Neutrophil uptake of IAV ([5]; Fig 4, listed as 22–42) | Neutrophil uptake of E.coli, 32μg/ml ([4]; 32μg/ml peptide, Fig 7A) | Neutrophil H2O2 production in response to IAV ([8]; IAV pre-incubated with peptide, Fig 5B) | Propensity to assemble into unorganized oligomers [9]
EDVGSNKGAIIGLMVGGVV [βA22-40, βA fragment of residues 22-40, obtained from Genscript] | did not | not | no or minimal antiviral activity | slight but significantly increased uptake at the highest concentration tested | lacked activity | did not | – | – | – | – | – | – | – | –
EDVGSNKGAIIGLMVGGVVIA [βA22-42, βA fragment of residues 22-42, obtained from Genscript] | marked viral aggregation | Aggregates were visible; also recorded: Aggregates were apparent | significantly inhibited infectivity | marked increase in uptake | greater increases than βA1-42 | caused aggregation | statistically significant aggregation | highest activity in this assay | caused aggregation of IAV particles | increased H2O2 formation as compared to IAV alone | had the ability to increase viral uptake | – | – | –
GLMVGGVV [βA33-40, βA fragment of residues 33-40, obtained from Genscript] | – | – | no or minimal antiviral activity | No significant effects | lacked activity | – | – | – | – | – | – | – | – | –
MVGGVVIA [βA35-42, 8 amino acid βA fragment of residues 35-42, obtained from Genscript] | – | – | significantly inhibited infectivity | – | increased uptake at the highest concentration tested | – | – | caused aggregation of IAV particles | – | – | – | some increase in E.coli uptake | did not increase H2O2 production | increased propensity

Source: publication PMC5856391, “Critical role of C-terminal residues of the Alzheimer's associated β-amyloid protein in mediating antiviral activity and modulating viral and bacterial interactions with neutrophils” (PLoS ONE, 2018)
